What was measured:
HDAC2 = HDAC2 (Homo sapiens (Human), UniProt Q92769); experiment: HDAC enzyme assay HDAC2; format: biochemical
Procedure: Compounds for testing were diluted in DMSO to 50 fold the final concentration and a ten-point three-fold dilution series was made. The compounds were diluted in assay buffer (50 mM HEPES, pH 7.4, 100 mM KCl, 0.001% Tween-20, 0.05% BSA, 20 μM TCEP) to 6-fold their final concentration. The HDAC enzymes (purchased from BPS Biosciences) were diluted to 1.5-fold their final concentration in assay buffer. The tripeptide substrate and trypsin at 0.05 μM final concentration were diluted in assay buffer at 6-fold their final concentration. The final enzyme concentrations used in these assays were 3.3 ng/ml (HDAC1), 0.2 ng/ml (HDAC2) and 0.08 ng/ml (HDAC3). The final substrate concentrations used were 16 μM (HDAC1), 10 μM (HDAC2) and 17 μM (HDAC3).
Five μl of compounds and 20 μl of enzyme were added to wells of a black, opaque 384 well plate in duplicate. Enzyme and compound were incubated together at room temperature for 10 minutes. Five μl of substrate was added to each well, the plate was shaken for 60 seconds and placed into a Victor 2 microtiter plate reader. The development of fluorescence was monitored for 60 min and the linear rate of the reaction was calculated. The IC50 was determined using Graph Pad Prism by a four parameter curve fit.

HDAC1 = HDAC1 (Homo sapiens (Human), UniProt Q13547); experiment: HDAC enzyme assay HDAC1; format: biochemical
HDAC3 = HDAC3 (Homo sapiens (Human), UniProt O15379); experiment: HDAC enzyme assay HDAC3; format: biochemical
Procedure: Compounds for testing were diluted in DMSO to 50 fold the final concentration and a ten-point three-fold dilution series was made. The compounds were diluted in assay buffer (50 mM HEPES, pH 7.4, 100 mM KCl, 0.001% Tween-20, 0.05% BSA, 20 μM TCEP) to 6-fold their final concentration. The HDAC enzymes (purchased from BPS Biosciences) were diluted to 1.5-fold their final concentration in assay buffer. The tripeptide substrate and trypsin at 0.05 μM final concentration were diluted in assay buffer at 6-fold their final concentration. The final enzyme concentrations used in these assays were 3.3 ng/ml (HDAC1), 0.2 ng/ml (HDAC2) and 0.08 ng/ml (HDAC3). The final substrate concentrations used were 16 μM (HDAC1), 10 μM (HDAC2) and 17 μM (HDAC3). Five μl of compounds and 20 μl of enzyme were added to wells of a black, opaque 384 well plate in duplicate. Enzyme and compound were incubated together at room temperature for 10 minutes. Five μl of substrate was added to each well, the plate was shaken for 60 seconds and placed into a Victor 2 microtiter plate reader. The development of fluorescence was monitored for 60 min and the linear rate of the reaction was calculated. The IC50 was determined using Graph Pad Prism by a four parameter curve fit. In Table 4 below, letter designations are defined as follows: […]

[1] = Rat pharmacokinetics, cassette dosing (IV and PO); format: in vivo; settings: male SD rats; for bioavailability / IV clearance / AUC / Cmax / half-life: rat; for bioavailability: 5 mg/kg; for half-life: read-out: PO T½ (converted)
Procedure: Male SD rats were fasted overnight. Compounds of the invention were dissolved in dimethyl acetamide at 10 times the final concentration, then Solutol HS 15 (BASF) was added to a final concentration of 10%. Finally 80% saline was added and vortexed to achieve a clear solution. For the IV dosing three animals were injected via the foot dorsal vein with 1 mg/kg compound. For the PO dosing 5 mg/kg of compound was delivered by oral gavage. Blood was collected via the tail vein into K2EDTA tubes at 5 minutes, 15 minutes, 30 minutes, 1 hour, 2 hours, 4 hours, 8 hours and 24 hours after dosing. The blood was centrifuged at 2000 g for 5 minutes at 4° C. to obtain plasma. The plasma was extracted with acetonitrile and the level of compound was analyzed by LC/MS/MS. The level of compound in plasma was calculated from a standard curve in rat plasma. The IV clearance (L/h/kg) and area under the curve (h*ng/mL) were calculated using WinNonLin software. The dose adjusted area under the curve for the IV and oral dosing were used to calculate the oral bioavailability.
Pharmacokinetic properties were assessed in a rat cassette dosing experiment. The IV clearance (IV Clr.) is in units of L/hr/kg. The oral maximum plasma concentration (PO Cmax) is in units of ng/ml. The oral plasma half-life (PO T½) is in units of hours. The oral area under the curve (PO AUC) is in units of hours*ng/ml. The fraction absorbed by the oral route (F %) is a percentage of the oral area under the curve to the IV area under the curve, dose adjusted.

hERG = hERG (Homo sapiens (Human), UniProt Q12809); experiment: hERG inhibition, whole-cell patch clamp; format: cell-based; settings: HEK293 cells stably transfected with hERG
Procedure: For hERG inhibition assays, the cells used were HEK293 cells stably transfected with hERG (cell line obtained from Cytocentrics Inc. 3463 Magic Drive San Antonio, Tex. 78229). Composition of External Solution: NaCl, 137 mM; KCl, 4 mM; MgCl2, 1.0 mM; CaCl2, 1.8 mM; HEPES 10 mM; Dextrose 11 mM; Adjusted to a pH of 7.4 with NaOH. Composition of Internal Solution: KCl, 130.0 mM; MgCl2, 1.0 mM; HEPES, 5.0 mM; EGTA, 5.0 mM; NaCl 7.0 mM. Adjusted to a pH of 7.2 using KOH. Test Concentrations: 0.1, 1, 10, 100 μM. Vehicle: DMSO. Experiments were performed at 34+/−1° C. Current was recorded using the whole-cell patch clamp technique on the Cytopatch automated platform. hERG current was elicited with the following voltage protocol: hERG current amplitude was measured as the peak current at −50 mV (tail current). […] Each cell served as its own control. Data are presented as the IC50 calculated by non-linear regression analysis.

[2] = system: CYP1A2, CYP2C9, CYP2C19, CYP3A4, CYP2D6; experiment: Cyp inhibition in human liver microsomes (all isozymes); format: in vitro ADME
Procedure: For Cyp inhibition, human liver microsomes from BD Gentest were incubated with Compound 028 or Compound 032 (10, 3.33, 1.11, 0.37, 0.12, 0.04, 0.01 μM) and substrate (CYP1A2: Phenacetin at 30 μM; CYP2C9: Diclofenac at 10 μM; CYP2C19: S-Mephenytoin at 35 μM; CYP3A4: Midazolam at 5 μM and Testosterone at 80 μM; CYP2D6: Bufuralol at 10 μM) for the following incubation times: CYP1A2, 2C9, 2D6: 10 minutes, 37° C.; CYP2C19: 45 minutes, 37° C.; CYP3A4: 5 minutes, 37° C. Substrate conversion was measured by liquid chromatography/mass spectrometry/mass spectrometry (LC/MS/MS). Inhibition was calculated by curve fitting in Graph Pad Prism.

[3] = plasma, oral AUC to IV AUC, dose adjusted

HDAC2, sequence (Q92769 whole entry): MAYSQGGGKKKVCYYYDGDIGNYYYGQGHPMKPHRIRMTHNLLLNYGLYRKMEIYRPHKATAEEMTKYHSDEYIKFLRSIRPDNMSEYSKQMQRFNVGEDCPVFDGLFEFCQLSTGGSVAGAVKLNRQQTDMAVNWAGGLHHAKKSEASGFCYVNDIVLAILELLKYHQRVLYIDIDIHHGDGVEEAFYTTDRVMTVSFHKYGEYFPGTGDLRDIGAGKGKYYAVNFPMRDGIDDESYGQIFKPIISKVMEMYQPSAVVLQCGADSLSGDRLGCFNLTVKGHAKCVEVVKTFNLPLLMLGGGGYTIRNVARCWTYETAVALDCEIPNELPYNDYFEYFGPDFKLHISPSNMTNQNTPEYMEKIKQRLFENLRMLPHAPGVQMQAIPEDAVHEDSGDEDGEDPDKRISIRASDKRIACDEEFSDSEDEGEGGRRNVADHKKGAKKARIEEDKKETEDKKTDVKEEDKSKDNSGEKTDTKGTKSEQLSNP
HDAC3, sequence (O15379 whole entry): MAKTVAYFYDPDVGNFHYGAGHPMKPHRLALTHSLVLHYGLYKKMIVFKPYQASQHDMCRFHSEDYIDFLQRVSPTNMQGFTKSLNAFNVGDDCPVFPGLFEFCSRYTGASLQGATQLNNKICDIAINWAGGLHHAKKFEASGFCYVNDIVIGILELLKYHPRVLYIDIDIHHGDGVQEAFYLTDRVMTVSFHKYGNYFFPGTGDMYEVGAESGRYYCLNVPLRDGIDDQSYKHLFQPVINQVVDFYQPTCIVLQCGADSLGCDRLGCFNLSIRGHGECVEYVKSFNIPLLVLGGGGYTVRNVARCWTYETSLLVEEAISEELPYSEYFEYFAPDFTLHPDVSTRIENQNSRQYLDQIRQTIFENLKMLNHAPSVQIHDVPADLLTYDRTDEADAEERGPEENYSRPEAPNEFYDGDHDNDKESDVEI
HDAC3, sequence (Q9Y618 395-489 partner): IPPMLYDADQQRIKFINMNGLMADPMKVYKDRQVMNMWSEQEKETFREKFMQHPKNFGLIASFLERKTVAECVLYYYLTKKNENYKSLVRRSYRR
hERG, sequence (Q12809 whole entry): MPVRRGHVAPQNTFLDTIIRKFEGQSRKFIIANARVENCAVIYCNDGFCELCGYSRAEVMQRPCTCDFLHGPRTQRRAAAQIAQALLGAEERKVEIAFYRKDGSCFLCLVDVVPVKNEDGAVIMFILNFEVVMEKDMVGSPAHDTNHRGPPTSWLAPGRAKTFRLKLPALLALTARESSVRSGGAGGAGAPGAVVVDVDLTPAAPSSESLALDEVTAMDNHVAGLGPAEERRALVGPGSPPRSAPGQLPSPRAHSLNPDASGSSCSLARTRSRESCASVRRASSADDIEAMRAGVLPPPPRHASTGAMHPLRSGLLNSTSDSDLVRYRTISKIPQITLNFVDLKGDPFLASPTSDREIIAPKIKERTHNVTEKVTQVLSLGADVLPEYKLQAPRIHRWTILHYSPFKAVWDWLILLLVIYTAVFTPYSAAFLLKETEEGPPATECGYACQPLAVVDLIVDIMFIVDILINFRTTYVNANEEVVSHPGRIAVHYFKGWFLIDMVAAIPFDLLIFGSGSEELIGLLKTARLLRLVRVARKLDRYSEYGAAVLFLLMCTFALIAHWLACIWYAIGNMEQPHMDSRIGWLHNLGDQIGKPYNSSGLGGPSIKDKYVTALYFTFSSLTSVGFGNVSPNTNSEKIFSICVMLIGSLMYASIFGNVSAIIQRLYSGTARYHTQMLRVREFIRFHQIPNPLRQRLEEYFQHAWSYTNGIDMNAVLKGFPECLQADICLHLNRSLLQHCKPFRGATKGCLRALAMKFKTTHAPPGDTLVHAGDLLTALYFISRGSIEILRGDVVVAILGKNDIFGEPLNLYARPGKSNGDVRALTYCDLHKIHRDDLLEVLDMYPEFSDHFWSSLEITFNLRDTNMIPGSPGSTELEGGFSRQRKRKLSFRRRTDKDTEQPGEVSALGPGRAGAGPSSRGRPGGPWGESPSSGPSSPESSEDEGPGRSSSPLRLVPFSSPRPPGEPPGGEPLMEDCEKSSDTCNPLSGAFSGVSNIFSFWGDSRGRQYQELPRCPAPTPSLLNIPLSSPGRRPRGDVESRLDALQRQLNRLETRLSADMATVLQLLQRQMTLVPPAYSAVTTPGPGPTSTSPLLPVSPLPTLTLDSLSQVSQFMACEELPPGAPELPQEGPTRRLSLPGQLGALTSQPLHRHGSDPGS
HDAC1, sequence (Q13547 whole entry): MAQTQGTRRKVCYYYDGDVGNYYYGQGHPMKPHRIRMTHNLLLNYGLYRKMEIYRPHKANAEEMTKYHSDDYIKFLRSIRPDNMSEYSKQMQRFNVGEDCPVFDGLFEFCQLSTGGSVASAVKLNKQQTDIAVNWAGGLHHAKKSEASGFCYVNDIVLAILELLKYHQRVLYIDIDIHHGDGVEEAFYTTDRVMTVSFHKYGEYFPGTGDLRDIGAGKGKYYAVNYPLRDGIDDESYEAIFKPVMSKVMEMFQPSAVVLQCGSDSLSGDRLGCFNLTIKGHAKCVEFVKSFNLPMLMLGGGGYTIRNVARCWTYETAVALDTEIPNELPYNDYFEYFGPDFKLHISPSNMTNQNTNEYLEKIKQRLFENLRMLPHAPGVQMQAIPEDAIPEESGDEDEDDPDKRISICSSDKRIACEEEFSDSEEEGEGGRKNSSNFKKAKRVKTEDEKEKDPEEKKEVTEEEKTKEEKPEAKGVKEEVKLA

Compound | IC50 (HDAC2) [nM] | IC50 (HDAC1) [nM] | IC50 (HDAC3) [nM] | also measured
Nc1ccc(-c2ccc(F)cc2)cc1NC(=O)c1ccc2nc(N3CCNCC3)ccc2c1 [Compound 035] | 10 to 500 | < 10 | 10 to 500 | bioavailability [1, 3]: 70.5%; IV clearance ([1]; IV 1 mg/kg, plasma): 2.83 mL/min/kg; AUC ([1]; PO 5 mg/kg, plasma): 20200 ng·h/mL; Cmax ([1]; PO 5 mg/kg, plasma): 1870 ng/mL; half-life ([1]; PO 5 mg/kg, plasma): 4.4 h
Nc1ccccc1NC(=O)c1ccc2nc(N3CCNCC3)ccc2c1 [Compound 001] | – | – | – | IC50 (hERG; 34 °C, tail current): > 30000 nM
Nc1ccc(-c2cccs2)cc1NC(=O)c1cnc(N2CCNCC2)cn1 [Compound 040] | < 10 | < 10 | 10 to 500 | bioavailability [1, 3]: 151%; IV clearance ([1]; IV 1 mg/kg, plasma): 26.7 mL/min/kg; AUC ([1]; PO 5 mg/kg, plasma): 3340 ng·h/mL; Cmax ([1]; PO 5 mg/kg, plasma): 211 ng/mL; half-life ([1]; PO 5 mg/kg, plasma): 16.7 h
CN1CCN(c2ncc(C(=O)Nc3cc(-c4cccs4)ccc3N)s2)CC1 [Compound 030] | – | – | – | IC50 [2]: > 10000 nM; IV Clr. ([1]; IV 1 mg/kg, plasma): 8 mL/min/kg; PO AUC ([1]; PO 5 mg/kg, plasma): 15260 ng·h/mL; PO Cmax ([1]; PO 5 mg/kg, plasma): 944 ng/mL; PO T½ ([1]; PO 5 mg/kg, plasma): 12.8 h; F % ([1]; oral AUC to IV AUC, dose adjusted): 170%
Nc1ccc(-c2ccccc2)cc1NC(=O)c1ccc(N2CCNCC2)nc1 [Compound 006] | – | – | – | IC50 [2]: > 10000 nM; IC50 (hERG; 34 °C, tail current): 5100 nM
Nc1ccc(-c2cc(F)cc(F)c2)cc1NC(=O)c1ccc(N2CCNCC2)nc1 [Compound 078] | 10 to 500 | > 500 | > 500 | –
Nc1ccc(-c2ccoc2)cc1NC(=O)c1cnc2cc(N3CCNCC3)ccc2c1 [Compound 025] | – | – | – | IC50 [2]: > 10000 nM
Nc1ccc(-c2cccc(F)c2)cc1NC(=O)c1ccc(N2CCNCC2)nc1 [Compound 077] | 10 to 500 | 10 to 500 | 10 to 500 | –
Nc1ccc(-c2ccccc2)cc1NC(=O)c1cnc(N2CCNCC2)cn1 [Compound 085] | 10 to 500 | < 10 | 10 to 500 | –
Nc1ccc(-c2ccc(F)cc2)cc1NC(=O)c1ccc(N2CCNCC2)nc1 [Compound 036] | 10 to 500 | < 10 | 10 to 500 | bioavailability [1, 3]: 69.1%; IV clearance ([1]; IV 1 mg/kg, plasma): 7 mL/min/kg; AUC ([1]; PO 5 mg/kg, plasma): 7280 ng·h/mL; Cmax ([1]; PO 5 mg/kg, plasma): 500 ng/mL; half-life ([1]; PO 5 mg/kg, plasma): 7.3 h
CN1CCN(c2ccc(C(=O)Nc3cc(-c4ccco4)ccc3N)cn2)CC1 [Compound 074] | 10 to 500 | < 10 | 10 to 500 | –
CN1CCN(c2cnc(C(=O)Nc3cc(-c4cccs4)ccc3N)cn2)CC1 [Compound 086] | < 10 | < 10 | 10 to 500 | –
Nc1ccc(-c2ccc(F)cc2)cc1NC(=O)c1ccc(N2CCNCC2)cn1 [Compound 038] | 10 to 500 | < 10 | 10 to 500 | IC50 (hERG; unit inferred): 2500 nM
Nc1ccc(-c2ccncc2)cc1NC(=O)c1cnc2cc(N3CCNCC3)ccc2c1 [Compound 026] | – | – | – | IC50 (hERG; 34 °C, tail current): > 100000 nM
CN1CCN(c2ccc(C(=O)Nc3cc(-c4ccco4)ccc3N)nc2)CC1 [Compound 082] | 10 to 500 | < 10 | 10 to 500 | –
Nc1ccc(-c2cccnc2)cc1NC(=O)c1ccc(N2CCNCC2)nc1 [Compound 072] | 10 to 500 | 10 to 500 | 10 to 500 | –
CN1CCN(c2ccc3cc(C(=O)Nc4cc(-c5ccco5)ccc4N)ncc3c2)CC1 [Compound 029] | – | – | – | IC50 (hERG; 34 °C, tail current): 5200 nM
Nc1ccc(-c2ccccn2)cc1NC(=O)c1ccc(N2CCNCC2)nc1 [Compound 073] | 10 to 500 | 10 to 500 | > 500 | –
Nc1ccccc1NC(=O)c1cc2ccc(N3CCNCC3)cc2cn1 [Compound 021] | – | – | – | bioavailability [1, 3]: 89.8%; IV clearance ([1]; IV 1 mg/kg, plasma): 94.3 mL/min/kg; AUC ([1]; PO 5 mg/kg, plasma): 763 ng·h/mL; Cmax ([1]; PO 5 mg/kg, plasma): 68 ng/mL; half-life ([1]; PO 5 mg/kg, plasma): 3.2 h; IC50 (hERG; 34 °C, tail current): 4200 nM

The next lines start with results.

IC50 (HDAC2) [nM] | IC50 (HDAC1) [nM] | IC50 (HDAC3) [nM] | Compound | also measured
10 to 500 | < 10 | 10 to 500 | Nc1ccc(-c2ccco2)cc1NC(=O)c1ncc(N2CCNCC2)s1 [Compound 050] | –
< 10 | < 10 | 10 to 500 | Nc1ccc(-c2ccoc2)cc1NC(=O)c1ncc(N2CCNCC2)s1 [Compound 051] | –
> 500 | > 500 | > 500 | Nc1ccc(-c2ccccc2)cc1NC(=O)c1cnc(N2CCNCC2)o1 [Compound 062] | –
10 to 500 | < 10 | 10 to 500 | Nc1ccc(-c2ccncc2)cc1NC(=O)c1ncc(N2CCNCC2)s1 [Compound 052] | –
10 to 500 | 10 to 500 | > 500 | Nc1ccc(-c2ccoc2)cc1NC(=O)c1nc(N2CCNCC2)cs1 [Compound 056] | –
> 500 | > 500 | > 500 | Nc1ccc(-c2ccco2)cc1NC(=O)c1cnc(N2CCNCC2)o1 [Compound 061] | –
10 to 500 | < 10 | 10 to 500 | Nc1ccc(-c2ccc(F)cc2)cc1NC(=O)c1ccc(N2CCNCC2)s1 [Compound 068] | –
10 to 500 | < 10 | 10 to 500 | Nc1ccc(-c2ccc(F)cc2)cc1NC(=O)c1cnc(N2CCNCC2)s1 [Compound 037] | –
10 to 500 | > 500 | > 500 | Nc1ccc(-c2ccco2)cc1NC(=O)c1nc(N2CCNCC2)cs1 [Compound 055] | –
10 to 500 | > 500 | > 500 | Nc1ccc(-c2ccncc2)cc1NC(=O)c1nc(N2CCNCC2)cs1 [Compound 057] | –
10 to 500 | < 10 | 10 to 500 | CN1CCN(c2ccc(C(=O)Nc3cc(-c4ccoc4)ccc3N)nc2)CC1 [Compound 083] | –
10 to 500 | < 10 | 10 to 500 | Nc1ccc(-c2ccco2)cc1NC(=O)c1cnc(N2CCNCC2)cn1 [Compound 087] | –
10 to 500 | 10 to 500 | > 500 | Nc1ccc(-c2ccccc2)cc1NC(=O)c1cc(N2CCNCC2)cs1 [Compound 069] | –
10 to 500 | < 10 | 10 to 500 | Nc1ccc(-c2ccoc2)cc1NC(=O)c1cnc(N2CCNCC2)s1 [Compound 046] | –
10 to 500 | 10 to 500 | > 500 | Nc1ccc(-c2ccccn2)cc1NC(=O)c1cnc(N2CCNCC2)s1 [Compound 044] | –

Reference: US10385031B2, “Substituted piperazines as selective HDAC1,2 inhibitors” (Regenacy Pharmaceuticals, LLC, priority 2016, dated 2019)
